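Exposure lasted 48 hours, with cells grown in 96-well plates and compounds tested at five concentrations. TGI: concentration producing complete growth inhibition.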
Legend:
Assay in all cases: DTP human tumour cell line panel, 48 h
786-0 renal = test system: 786-0 renal
A498 renal = test system: A498 renal
A549 NSCLC = test system: A549 NSCLC
ACHN renal = test system: ACHN renal
BT-549 breast = test system: BT-549 breast
CAKI-1 renal = test system: CAKI-1 renal
CCRF-CEM leukemia = test system: CCRF-CEM leukemia
COLO 205 colon = test system: COLO 205 colon
DU-145 prostate = test system: DU-145 prostate
EKVX NSCLC = test system: EKVX NSCLC
HCT-116 colon = test system: HCT-116 colon
HCT-15 colon = test system: HCT-15 colon
HL-60(TB) leukemia = test system: HL-60(TB) leukemia
HOP-62 NSCLC = test system: HOP-62 NSCLC
HOP-92 NSCLC = test system: HOP-92 NSCLC
HS 578T breast = test system: HS 578T breast
HT29 colon = test system: HT29 colon
IGROV1 ovarian = test system: IGROV1 ovarian
K-562 leukemia = test system: K-562 leukemia
KM12 colon = test system: KM12 colon
LOX IMVI melanoma = test system: LOX IMVI melanoma
M14 melanoma = test system: M14 melanoma
MALME-3M melanoma = test system: MALME-3M melanoma
MCF7 breast = test system: MCF7 breast
MDA-MB-231 breast = test system: MDA-MB-231 breast
MDA-MB-435 = test system: MDA-MB-435
MDA-N = test system: MDA-N
MOLT-4 leukemia = test system: MOLT-4 leukemia
NCI-H226 lung = test system: NCI-H226 lung
NCI-H23 lung = test system: NCI-H23 lung
NCI-H460 lung = test system: NCI-H460 lung
NCI-H522 lung = test system: NCI-H522 lung
NCI/ADR-RES ovarian = test system: NCI/ADR-RES ovarian
OVCAR-3 ovarian = test system: OVCAR-3 ovarian
OVCAR-4 ovarian = test system: OVCAR-4 ovarian
OVCAR-5 ovarian = test system: OVCAR-5 ovarian
OVCAR-8 ovarian = test system: OVCAR-8 ovarian
PC-3 prostate = test system: PC-3 prostate
RPMI-8226 leukemia = test system: RPMI-8226 leukemia
RXF 393 renal = test system: RXF 393 renal
SF-268 CNS = test system: SF-268 CNS
SF-295 CNS = test system: SF-295 CNS
SF-539 CNS = test system: SF-539 CNS
SK-MEL-2 melanoma = test system: SK-MEL-2 melanoma
SK-MEL-28 melanoma = test system: SK-MEL-28 melanoma
SK-MEL-5 melanoma = test system: SK-MEL-5 melanoma
SK-OV-3 ovarian = test system: SK-OV-3 ovarian
SN12C renal = test system: SN12C renal
SNB-19 CNS = test system: SNB-19 CNS
SNB-75 CNS = test system: SNB-75 CNS
SW-620 colon = test system: SW-620 colon
T-47D breast = test system: T-47D breast
TK-10 renal = test system: TK-10 renal
U251 CNS = test system: U251 CNS
UACC-257 melanoma = test system: UACC-257 melanoma
UACC-62 melanoma = test system: UACC-62 melanoma
SR leukemia = test system: SR leukemia
UO-31 renal = test system: UO-31 renal

Q: Which results are given for COC(=O)c1ccccc1Nc1ccccc1C(=O)OC?
A: TGI (786-0 renal): > 100 µM; TGI (A498 renal): > 100 µM; TGI (A549 NSCLC): > 100 µM; TGI (ACHN renal): > 100 µM; TGI (BT-549 breast): > 100 µM; TGI (CAKI-1 renal): > 100 µM; TGI (CCRF-CEM leukemia): > 100 µM; TGI (COLO 205 colon): > 100 µM; TGI (DU-145 prostate): > 100 µM; TGI (EKVX NSCLC): > 100 µM; TGI (HCT-116 colon): > 100 µM; TGI (HCT-15 colon): > 100 µM; TGI (HL-60(TB) leukemia): > 100 µM; TGI (HOP-62 NSCLC): > 100 µM; TGI (HOP-92 NSCLC): 75.5 µM; TGI (HS 578T breast): 72.2 µM; TGI (HT29 colon): > 100 µM; TGI (IGROV1 ovarian): > 100 µM; TGI (K-562 leukemia): > 100 µM; TGI (KM12 colon): > 100 µM; TGI (LOX IMVI melanoma): > 100 µM; TGI (M14 melanoma): > 100 µM; TGI (MALME-3M melanoma): 96.8 µM; TGI (MCF7 breast): > 100 µM; TGI (MDA-MB-231 breast): > 100 µM; TGI (MDA-MB-435): > 100 µM; TGI (MDA-N): > 100 µM; TGI (MOLT-4 leukemia): > 100 µM; TGI (NCI-H226 lung): 71.6 µM; TGI (NCI-H23 lung): > 100 µM; TGI (NCI-H460 lung): > 100 µM; TGI (NCI-H522 lung): > 100 µM; TGI (NCI/ADR-RES ovarian): > 100 µM; TGI (OVCAR-3 ovarian): > 100 µM; TGI (OVCAR-4 ovarian): > 100 µM; TGI (OVCAR-5 ovarian): > 100 µM; TGI (OVCAR-8 ovarian): > 100 µM; TGI (PC-3 prostate): > 100 µM; TGI (RPMI-8226 leukemia): > 100 µM; TGI (RXF 393 renal): > 100 µM; TGI (SF-268 CNS): > 100 µM; TGI (SF-295 CNS): > 100 µM; TGI (SF-539 CNS): > 100 µM; TGI (SK-MEL-2 melanoma): > 100 µM; TGI (SK-MEL-28 melanoma): > 100 µM; TGI (SK-MEL-5 melanoma): > 100 µM; TGI (SK-OV-3 ovarian): > 100 µM; TGI (SN12C renal): > 100 µM; TGI (SNB-19 CNS): > 100 µM; TGI (SNB-75 CNS): > 100 µM; TGI (SW-620 colon): > 100 µM; TGI (T-47D breast): > 100 µM; TGI (TK-10 renal): > 100 µM; TGI (U251 CNS): > 100 µM; TGI (UACC-257 melanoma): > 100 µM; TGI (UACC-62 melanoma): > 100 µM

Q: With C1COCCOP2(N3CC3)=NP(N3CC3)(=NP(N3CC3)(N3CC3)=N2)OCCOCCO1 (stereo not given) as the molecule, how does the TGI (786-0 renal) read?
A: > 100 µM

Q: What about the TGI (A498 renal) of the same molecule?
A: > 100 µM

Q: What about the TGI (A549 NSCLC) of the same molecule?
A: > 100 µM

Q: What about the TGI (ACHN renal) of the same molecule?
A: > 100 µM

Q: What about the TGI (BT-549 breast) of the same molecule?
A: > 100 µM

Q: And the TGI (CAKI-1 renal)?
A: > 100 µM

Q: And the TGI (CCRF-CEM leukemia)?
A: > 100 µM

Q: What about the TGI (COLO 205 colon) of the same molecule?
A: > 100 µM

Q: And the TGI (DU-145 prostate)?
A: > 100 µM

Q: What about the TGI (EKVX NSCLC) of the same molecule?
A: > 100 µM

Q: And the TGI (HCT-116 colon)?
A: > 100 µM

Q: And the TGI (HCT-15 colon)?
A: > 100 µM

Q: And the TGI (HL-60(TB) leukemia)?
A: > 100 µM

Q: What about the TGI (HOP-62 NSCLC) of the same molecule?
A: > 100 µM

Q: What about the TGI (HS 578T breast) of the same molecule?
A: > 100 µM

Q: What about the TGI (HT29 colon) of the same molecule?
A: > 100 µM

Q: What about the TGI (IGROV1 ovarian) of the same molecule?
A: > 100 µM

Q: And the TGI (K-562 leukemia)?
A: > 100 µM

Q: What about the TGI (KM12 colon) of the same molecule?
A: > 100 µM

Q: What about the TGI (LOX IMVI melanoma) of the same molecule?
A: > 100 µM

Q: What about the TGI (M14 melanoma) of the same molecule?
A: > 100 µM

Q: And the TGI (MALME-3M melanoma)?
A: > 100 µM

Q: What about the TGI (MCF7 breast) of the same molecule?
A: > 100 µM

Q: And the TGI (MDA-MB-231 breast)?
A: > 100 µM

Q: What about the TGI (MDA-MB-435) of the same molecule?
A: > 100 µM

Q: What about the TGI (MDA-N) of the same molecule?
A: > 100 µM

Q: And the TGI (MOLT-4 leukemia)?
A: > 100 µM

Q: What about the TGI (NCI-H226 lung) of the same molecule?
A: > 100 µM

Q: And the TGI (NCI-H23 lung)?
A: > 100 µM

Q: And the TGI (NCI-H522 lung)?
A: > 100 µM

Q: And the TGI (NCI/ADR-RES ovarian)?
A: > 100 µM

Q: And the TGI (OVCAR-3 ovarian)?
A: > 100 µM

Q: What about the TGI (OVCAR-4 ovarian) of the same molecule?
A: > 100 µM

Q: And the TGI (OVCAR-5 ovarian)?
A: > 100 µM

Q: And the TGI (OVCAR-8 ovarian)?
A: > 100 µM

Q: And the TGI (PC-3 prostate)?
A: > 100 µM

Q: What about the TGI (RPMI-8226 leukemia) of the same molecule?
A: > 100 µM

Q: And the TGI (RXF 393 renal)?
A: > 100 µM

Q: And the TGI (SF-268 CNS)?
A: > 100 µM

Q: What about the TGI (SF-295 CNS) of the same molecule?
A: > 100 µM

Q: And the TGI (SF-539 CNS)?
A: > 100 µM

Q: What about the TGI (SK-MEL-5 melanoma) of the same molecule?
A: > 100 µM

Q: And the TGI (SK-OV-3 ovarian)?
A: > 100 µM

Q: What about the TGI (SN12C renal) of the same molecule?
A: > 100 µM

Q: And the TGI (SNB-19 CNS)?
A: > 100 µM

Q: What about the TGI (SNB-75 CNS) of the same molecule?
A: > 100 µM

Q: What about the TGI (SR leukemia) of the same molecule?
A: > 100 µM

Q: And the TGI (SW-620 colon)?
A: > 100 µM

Q: And the TGI (T-47D breast)?
A: > 100 µM

Q: And the TGI (TK-10 renal)?
A: > 100 µM

Q: And the TGI (U251 CNS)?
A: > 100 µM

Q: What about the TGI (UACC-257 melanoma) of the same molecule?
A: > 100 µM

Q: What about the TGI (UACC-62 melanoma) of the same molecule?
A: > 100 µM

Q: And the TGI (UO-31 renal)?
A: > 100 µM
